Experimental data published in ChEMBL document CHEMBL3751668, “A Pyrazolo[3,4-d]pyrimidin-4-amine Derivative Containing an Isoxazole Moiety Is a Selective and Potent Inhibitor of RET Gatekeeper Mutants” (J Med Chem, 2016).

Columns and labels:
[1] = Cytotoxicity against mouse BAF3 cells after 48 hrs by MTT assay; format: cell-based
[2] = Cytotoxicity against human Nthy-ori 3-1 cells after 10 days by MTT assay; format: cell-based
[3] = target: T1, Proto-oncogene tyrosine-protein kinase receptor Ret (Homo sapiens, UniProt P07949); experiment: Inhibition of human wild type RET by radiometric assay in presence of [gamma-33P]-ATP
[4] = test system: Proto-oncogene tyrosine-protein kinase receptor Ret (Homo sapiens), P07949 [V804M]; conditions: BaF3
[5] = target: T1, Proto-oncogene tyrosine-protein kinase receptor Ret; conditions: BaF3
Description: Inhibition of wild type TEL-fused RET (unknown origin) expressed in mouse BA/F3 cells assessed as cell growth inhibition after 48 hrs by MTT assay

[6] = test system: Proto-oncogene tyrosine-protein kinase receptor Ret (Homo sapiens), P07949 [C634W]; conditions: TT
Description: Inhibition of RET C634W mutant in human TT cells assessed as cell growth inhibition after 10 days by MTT assay

[7] = target: Proto-oncogene tyrosine-protein kinase receptor Ret (Homo sapiens, UniProt P07949, V804M); experiment: Inhibition of human Ret V804M mutant by radiometric assay in presence of [gamma-33P]-ATP
[8] = target: Proto-oncogene tyrosine-protein kinase receptor Ret (Homo sapiens, UniProt P07949, G691S); experiment: Inhibition of human Ret G691S mutant by radiometric assay in presence of [gamma-33P]-ATP
[9] = target: Proto-oncogene tyrosine-protein kinase receptor Ret (Homo sapiens, UniProt P07949, Y791F); experiment: Inhibition of human Ret Y791F mutant by radiometric assay in presence of [gamma-33P]-ATP
[10] = target: Proto-oncogene tyrosine-protein kinase receptor Ret (Homo sapiens, UniProt P07949, V804L); experiment: Inhibition of human Ret V804L mutant by radiometric assay in presence of [gamma-33P]-ATP
[11] = target: Proto-oncogene tyrosine-protein kinase receptor Ret (Homo sapiens, UniProt P07949, S891A); experiment: Inhibition of human Ret S891A mutant by radiometric assay in presence of [gamma-33P]-ATP
[12] = target: Proto-oncogene tyrosine-protein kinase receptor Ret (Homo sapiens, UniProt P07949, M918T); experiment: Inhibition of human Ret M918T mutant by radiometric assay in presence of [gamma-33P]-ATP
[13] = Induction of apoptosis in human Nthy-ori 3-1 cells at 1 to 10 uM after 48 hrs by annexinV/PI staining-based flow cytometric analysis; format: cell-based; conditions: nthy-ori 3-1, 48 h
[14] = Cell cycle arrest in human Nthy-ori 3-1 cells at 1 to 10 uM after 24 hrs by […] staining-based flow cytometric analysis; conditions: nthy-ori 3-1, 24 h
TT = experiment: Cytotoxicity against human TT cells assessed as suppression of anchorage-independent growth at 0.3 to 1 uM for 30 days by soft agar assay; format: functional
[15] = test system: Proto-oncogene tyrosine-protein kinase receptor Ret (Homo sapiens), P07949 [V804L]; conditions: BaF3
[16] = test system: Proto-oncogene tyrosine-protein kinase receptor Ret (Homo sapiens), P07949 [S891A]; conditions: BaF3
Sequence of Proto-oncogene tyrosine-protein kinase receptor Ret (Homo sapiens), P07949 [S891A] (P07949 whole entry S891A): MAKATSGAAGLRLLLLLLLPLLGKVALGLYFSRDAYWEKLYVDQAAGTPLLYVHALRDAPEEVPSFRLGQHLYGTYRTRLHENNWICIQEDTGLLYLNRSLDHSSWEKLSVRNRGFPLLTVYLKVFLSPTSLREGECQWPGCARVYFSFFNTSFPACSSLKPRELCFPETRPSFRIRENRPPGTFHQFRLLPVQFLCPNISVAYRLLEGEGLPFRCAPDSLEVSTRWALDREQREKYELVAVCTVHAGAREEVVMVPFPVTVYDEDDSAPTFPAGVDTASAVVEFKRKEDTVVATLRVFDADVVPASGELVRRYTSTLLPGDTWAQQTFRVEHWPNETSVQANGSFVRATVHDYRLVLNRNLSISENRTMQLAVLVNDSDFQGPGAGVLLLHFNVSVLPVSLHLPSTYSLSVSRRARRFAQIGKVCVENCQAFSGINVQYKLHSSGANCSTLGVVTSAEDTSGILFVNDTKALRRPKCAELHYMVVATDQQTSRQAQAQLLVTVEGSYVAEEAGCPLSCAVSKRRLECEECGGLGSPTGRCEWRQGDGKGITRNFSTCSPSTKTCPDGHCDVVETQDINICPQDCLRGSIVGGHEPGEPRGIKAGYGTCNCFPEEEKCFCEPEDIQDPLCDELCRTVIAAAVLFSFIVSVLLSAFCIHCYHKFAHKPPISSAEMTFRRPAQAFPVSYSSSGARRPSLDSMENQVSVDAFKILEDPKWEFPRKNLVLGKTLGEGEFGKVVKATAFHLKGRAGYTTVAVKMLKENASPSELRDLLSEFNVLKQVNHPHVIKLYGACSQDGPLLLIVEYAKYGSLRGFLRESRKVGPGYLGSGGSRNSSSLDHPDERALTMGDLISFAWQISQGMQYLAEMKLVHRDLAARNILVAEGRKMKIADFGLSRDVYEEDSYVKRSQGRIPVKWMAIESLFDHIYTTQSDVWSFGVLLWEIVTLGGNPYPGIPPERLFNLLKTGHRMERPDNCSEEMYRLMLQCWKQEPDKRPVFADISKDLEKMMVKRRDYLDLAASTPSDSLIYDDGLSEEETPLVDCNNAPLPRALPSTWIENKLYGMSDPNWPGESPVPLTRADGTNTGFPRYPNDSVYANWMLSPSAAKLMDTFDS

Sequence of Proto-oncogene tyrosine-protein kinase receptor Ret (Homo sapiens, UniProt P07949, V804M) (P07949 29-1114 V804M limits assumed): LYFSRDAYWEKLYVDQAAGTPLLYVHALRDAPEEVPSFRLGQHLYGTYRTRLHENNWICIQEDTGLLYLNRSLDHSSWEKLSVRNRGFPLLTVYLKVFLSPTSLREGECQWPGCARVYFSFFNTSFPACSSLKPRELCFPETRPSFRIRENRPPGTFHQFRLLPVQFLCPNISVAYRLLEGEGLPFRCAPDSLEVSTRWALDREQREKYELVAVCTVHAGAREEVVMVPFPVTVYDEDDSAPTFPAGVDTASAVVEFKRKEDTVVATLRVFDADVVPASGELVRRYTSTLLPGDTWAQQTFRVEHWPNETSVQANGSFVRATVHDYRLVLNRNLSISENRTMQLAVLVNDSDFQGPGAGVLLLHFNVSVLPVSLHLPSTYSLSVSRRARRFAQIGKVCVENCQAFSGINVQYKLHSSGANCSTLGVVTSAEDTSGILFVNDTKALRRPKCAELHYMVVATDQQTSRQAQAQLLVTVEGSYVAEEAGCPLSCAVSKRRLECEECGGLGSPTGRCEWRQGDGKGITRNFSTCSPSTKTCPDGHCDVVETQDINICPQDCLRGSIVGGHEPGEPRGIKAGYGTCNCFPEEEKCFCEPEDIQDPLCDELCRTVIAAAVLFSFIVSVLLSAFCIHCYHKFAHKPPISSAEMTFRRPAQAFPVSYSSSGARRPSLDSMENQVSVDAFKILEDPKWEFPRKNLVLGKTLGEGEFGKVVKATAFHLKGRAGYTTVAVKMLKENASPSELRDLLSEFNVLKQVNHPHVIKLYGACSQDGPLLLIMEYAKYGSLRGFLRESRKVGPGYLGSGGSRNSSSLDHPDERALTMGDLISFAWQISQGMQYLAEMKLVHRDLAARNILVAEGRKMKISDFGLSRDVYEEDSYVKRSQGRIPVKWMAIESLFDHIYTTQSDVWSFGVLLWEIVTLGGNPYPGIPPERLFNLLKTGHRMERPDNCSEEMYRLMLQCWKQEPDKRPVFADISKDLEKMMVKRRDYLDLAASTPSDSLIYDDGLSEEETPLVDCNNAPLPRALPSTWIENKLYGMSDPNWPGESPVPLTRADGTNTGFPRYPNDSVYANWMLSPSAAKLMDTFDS
Sequence of Proto-oncogene tyrosine-protein kinase receptor Ret (Homo sapiens), P07949 [V804M] (P07949 whole entry V804M): as the sequence (P07949 whole entry S891A) above, with V804M, A891S counted along it
Sequence of Proto-oncogene tyrosine-protein kinase receptor Ret (Homo sapiens), P07949 [C634W] (P07949 whole entry C634W): as the sequence (P07949 whole entry S891A) above, with C634W, A891S counted along it
T1 sequence (P07949 whole entry): as the sequence (P07949 whole entry S891A) above, with A891S counted along it
Sequence of Proto-oncogene tyrosine-protein kinase receptor Ret (Homo sapiens, UniProt P07949, M918T) (P07949 29-1114 M918T limits assumed): as the sequence (P07949 29-1114 V804M limits assumed) above, with M776V, M890T counted along it
Sequence of Proto-oncogene tyrosine-protein kinase receptor Ret (Homo sapiens), P07949 [V804L] (P07949 whole entry V804L): as the sequence (P07949 whole entry S891A) above, with V804L, A891S counted along it
Sequence of Proto-oncogene tyrosine-protein kinase receptor Ret (Homo sapiens, UniProt P07949, Y791F) (P07949 29-1114 Y791F limits assumed): as the sequence (P07949 29-1114 V804M limits assumed) above, with Y763F, M776V counted along it
Sequence of Proto-oncogene tyrosine-protein kinase receptor Ret (Homo sapiens, UniProt P07949, V804L) (P07949 29-1114 V804L limits assumed): as the sequence (P07949 29-1114 V804M limits assumed) above, with M776L counted along it
Sequence of Proto-oncogene tyrosine-protein kinase receptor Ret (Homo sapiens, UniProt P07949, G691S) (P07949 29-1114 G691S limits assumed): as the sequence (P07949 29-1114 V804M limits assumed) above, with G663S, M776V counted along it
Sequence of Proto-oncogene tyrosine-protein kinase receptor Ret (Homo sapiens, UniProt P07949, S891A) (P07949 29-1114 S891A limits assumed): as the sequence (P07949 29-1114 V804M limits assumed) above, with M776V, S863A counted along it

Row | IC50 [3] | GI50 [4] | GI50 [5] | GI50 [6] | IC50 [7] | IC50 [8] | IC50 [9] | IC50 [10] | IC50 [11] | IC50 [12] | GI50 [15] | GI50 [16] | SMILES | GI50 at 48 h [1] | GI50 at 240 h [2] | Activity [13] | Activity [14] | Activity (TT)
1 | 190 nM | 4.97 µM | 3.46 µM | > 10 µM |  |  |  |  |  |  |  |  | CC(C)n1nc(-c2cc(-c3ccccc3)on2)c2c(N)ncnc21 | > 10 µM | 5.72 µM |  |  | 
2 |  | 2.6 µM | 0.61 µM | 2.54 µM | 2650 nM | 75 nM | 14 nM | 3.13 µM | 54 nM | 57 nM | 5.43 µM | 350 nM | CC(C)n1nc(C#Cc2ccccc2)c2c(N)ncnc21 | 16.1 µM | 3.58 µM | Non-toxic | Non-toxic | 150 CFU
3 | 4900 nM | > 10 µM | > 10 µM | > 10 µM | 3680 nM |  |  |  |  |  |  |  | CC(C)n1nc(/C=N/O)c2c(N)ncnc21 | > 10 µM | 107 µM |  |  | 
4 | 8330 nM | > 10 µM | 7.41 µM | 9.27 µM |  |  |  |  |  |  |  |  | CC(C)n1nc(/C=N/OCc2ccccc2)c2c(N)ncnc21 | > 10 µM | 9.85 µM |  |  | 

The remaining lines, values behind:

Row | SMILES | IC50 [3] | GI50 [4] | GI50 [5] | GI50 [6] | IC50 [7] | IC50 [8] | IC50 [9] | IC50 [10] | IC50 [11] | IC50 [12] | GI50 [15] | GI50 [16] | GI50 at 48 h [1] | GI50 at 240 h [2] | Activity [13] | Activity [14] | Activity (TT)
5 | CC(C)c1cc(-c2nn(C(C)C)c3ncnc(N)c23)no1 | 41 nM | 5.9 µM | 2.4 µM | 5.13 µM | 355 nM |  |  |  |  |  |  |  | > 10 µM | 23.7 µM |  |  | 
6 | Nc1ncnc2c1c(-c1cc(C3CC3)on1)nn2C1CCCCC1 | 2 nM | 2 µM | 0.52 µM | 0.29 µM | 14 nM |  |  |  |  |  |  |  | > 10 µM | 32.5 µM |  |  | 
7 | Cn1nc(-c2cc(C3CC3)on2)c2c(N)ncnc21 | 27 nM | 5.56 µM | 2.67 µM | 3.51 µM | 182 nM |  |  |  |  |  |  |  | > 10 µM | 28.7 µM |  |  | 
8 | Nc1ncnc2c1c(-c1cc(C3CC3)on1)nn2C1CCOCC1 | 5 nM | 1.93 µM | 0.44 µM | 0.94 µM | 41 nM |  |  |  |  |  |  |  | > 10 µM | 32.9 µM |  |  | 
9 | CC(C)n1nc(-c2cc(C3CCCC3)on2)c2c(N)ncnc21 | 241 nM | > 10 µM | 7.12 µM | > 10 µM | 1570 nM |  |  |  |  |  |  |  | > 10 µM | 11.5 µM |  |  | 
10 | CC(C)n1nc(-c2cc(C(C)(C)C)on2)c2c(N)ncnc21 | 210 nM | 7.31 µM | 6.12 µM | > 10 µM | 2100 nM |  |  |  |  |  |  |  | > 10 µM | 24.7 µM |  |  | 
11 | CC(C)n1nc(-c2cc(-c3ccc(F)cc3)on2)c2c(N)ncnc21 | 150 nM | > 10 µM | > 10 µM | > 10 µM |  |  |  |  |  |  |  |  | > 10 µM | 9.77 µM |  |  | 
12 | Nc1ncnc2c1c(-c1cc(C3CC3)on1)nn2Cc1ccccc1 | 74 nM | > 10 µM | > 10 µM | > 10 µM | 557 nM |  |  |  |  |  |  |  | > 10 µM | 39.6 µM |  |  | 
